For test [1], the target named is T1, recombinant human Lp-PLA2 (Homo sapiens, UniProt Q13093).
T1 sequence (Q13093 22-441): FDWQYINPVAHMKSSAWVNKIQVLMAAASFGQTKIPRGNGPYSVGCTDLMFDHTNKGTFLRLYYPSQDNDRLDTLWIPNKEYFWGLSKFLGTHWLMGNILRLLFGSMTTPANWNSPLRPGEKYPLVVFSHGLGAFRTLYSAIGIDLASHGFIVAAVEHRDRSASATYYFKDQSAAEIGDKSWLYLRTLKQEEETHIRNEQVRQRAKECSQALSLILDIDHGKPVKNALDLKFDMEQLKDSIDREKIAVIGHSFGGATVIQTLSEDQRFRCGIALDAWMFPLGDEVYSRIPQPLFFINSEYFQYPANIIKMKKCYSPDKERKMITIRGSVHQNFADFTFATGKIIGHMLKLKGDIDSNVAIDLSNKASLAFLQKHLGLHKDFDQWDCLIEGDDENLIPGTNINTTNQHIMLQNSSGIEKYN
The test can be described thus: (1b) hrThioPAF assay, recombinant human Lp-PLA2. Conditions: Examples 266-412 were tested here, one experiment or average of multiple experiments, read-out: rhLp-PLA2 (pIC50) (converted). It counts as biochemical. From the text: 1-O-Hexadecyl-2-deoxy-2-thio-S-acetyl-sn-glyceryl-3-phosphorylcholine (2-thio-PAF) is a substrate for PAF-hydrolases (PAF-AH) commercially available from Cayman Chemical. Upon cleavage with PAF-AH, the free thiol is released at the sn-2 position and can then react with 7-diethylamino-3-(4′-maleimidylphenyl)-4-methylcoumarin (CPM) a thiol-reactive coumarin. This reaction (Michael addition) results in an increase in fluorescence. Inhibitors of Lp-PLA2 therefore prevent this cleavage and no fluorescent increase is observed.
The Thio-PAF assay was run as an unquenched 20 μL assay. The source plate containing the compounds to be tested was prepared by making 1:3 (by volume) serial dilution of the compounds within DMSO on 384-well microplate. Then, 5 μL of the compounds on compound source plate were transferred into 384 well Greiner 784076 (black) plates using STAR+(Hamilton) liquid dispenser. 10 μL of recombinant human Lp-PLA2 enzyme (20 pM rhLp-PLA2 in assay buffer of 50 mM HEPES, pH 7.4, 150 mM NaCl, 1 mM CHAPS) was added to each well of the plate. 5 μL of substrate comprising 40 μM 2-thio-PAF [from ethanol stock], 40 μM CPM [from a DMSO stock] and 400 μM NEM (N-ethylmaleimide) [made fresh daily in DMSO] in assay buffer (50 mM HEPES, pH 7.4, 150 mM NaCl, 1 mM CHAPS) was added to 384 well Greiner 784076 black plates. Plates were vortexed for 10 sec. The plate was covered to protect it from light and incubated for 20 min at 25° C. The plates were read for fluorescence intensity at ex: 380 nm/em: 485 nm using Envision plate reader (Perkin Elmer). Raw data were transferred to Excel software and pIC50 data, curve and QC analysis was conducted by using XL fit module in Excel.

A further test deals with T2, Lp-PLA2 in human plasma (Homo sapiens, UniProt Q13093).
T2 construct: from tissue; host or cells: pooled human plasma
T2 sequence (Q13093 22-441): T1 sequence (Q13093 22-441)
The test is described as follows: (3b) Lp-PLA2 human plasma alternative Thio-PAF assay. The following applies: (3b) alternative Thio-PAF assay, pooled human plasma; Examples of 266-412 were tested here; read-out: pIC50 in the Lp-PLA2 human plasma assay (converted). It counts as biochemical. The protocol: (3b) Alternative Thio-PAF Assay
The human plasma assay utilizes the same thioester analog of PAF as described in (1b) “hr ThioPAF” assay. This assay may detect the activity of Lp-PLA2 in human plasma, as determined by specific inhibition by Lp-PLA2 inhibitors.
The thio-PAF assay was run as a quenched 20 μL assay. Compounds source plate was prepared by making 1:3 (by volume) serial dilution of the compounds into pure DMSO on 96-well microplate. 5 μL of compounds on compound source plate were transferred to 96-well Corning 3686 (black) low-volume plates by STAR+(Hamilton) liquid dispenser. 10 μL pooled human plasma, which was previously aliquoted and frozen, was added. Plates were centrifuged for 30 sec at 1000 rpm. After 15 minutes preincubation at room temperature, 5 μL of substrate solution comprising 2 mM 2-thio-PAF [from ethanol stock], 52 μM CPM [from a DMSO stock] and 2.5 mM NEM (N-ethylmaleimide) [made fresh daily in DMSO] in assay buffer (50 mM HEPES, pH 7.4, 150 mM NaCl, 1 mM CHAPS) was added to 96-well Corning 3686 (black) low-volume plates. After 3 mins, reaction was quenched with 10 μL of 5% aqueous trifluoroacetic acid (TFA). Plates were centrifuged 30 sec at 1000 rpm, covered to protect from light and incubated for 10 min at room temperature. Plates were read at ex: 380 nm/em: 485 nm using Envision plate reader (Perkin Elmer). Raw data were transferred to Excel software and pIC50 data, curve and QC analysis was conducted by using XL fit module in Excel.

With `CCCC(=O)N1CCN2c3cc(OCc4ccc(F)c(C#N)c4)nc(=O)n3CC2C1` (stereo not drawn) [Example E291, 5-(((2-Butyryl-9-oxo-2,3,4,9,11,11a-hexahydro-1H-pyrazino[1′,2′:3,4]imidazo[1,2-c]pyrimidin-7-yl)oxy)methyl)-2-fluorobenzonitrile 2,2,2-trifluoroacetate], the results for the IC50 (in test [1]; on Lp-PLA2 in human plasma) were not above 10 µM and not above 0.1 µM, respectively. The corresponding values for `CNC1(C(=O)N2CCN3c4cc(OCc5ccc(F)c(F)c5)nc(=O)n4CC3C2)CC1` (stereo not drawn) [Example E308, 7-((3,4-Difluorobenzyl)oxy)-2-(1-(methylamino)cyclopropanecarbonyl)-3,4,11,11a-tetrahydro-1H-pyrazino[1′,2′:3,4]imidazo[1,2-c]pyrimidin-9(2H)-one] are not above 10 µM and not above 0.1 µM. Take `[2H]C1([2H])C2CN(C(C)=O)CCN2c2cc(OCc3ccc(F)c(C#N)c3)nc(=O)n21` (stereo not drawn) [Example E285, 5-(((2-Acetyl-11,11-dideutero-9-oxo-2,3,4,9,11,11a-hexahydro-1H-pyrazino[1′,2′:3,4]imidazo[1,2-c]pyrimidin-7-yl)oxy)methyl)-2-fluorobenzonitrile]: the values for the IC50 (in test [1]; on Lp-PLA2 in human plasma) were not above 10 µM and not above 0.1 µM, respectively. The corresponding values for `CC(C)CN1CCN2c3cc(OCc4ccc(F)c(F)c4)nc(=O)n3CC2C1` (stereo not drawn) [Example E305, 7-((3,4-Difluorobenzyl)oxy)-2-isobutyl-3,4,11,11a-tetrahydro-1H-pyrazino[1′,2′:3,4]imidazo[1,2-c]pyrimidin-9(2H)-one] are not above 10 µM and not above 0.1 µM. In the same order, the values of `O=C([C@@H]1CCN1)N1CCN2c3cc(OCc4ccc(F)c(F)c4)nc(=O)n3CC2C1` (stereo partly drawn) [Example E339, 2-((S)-azetidine-2-carbonyl)-7-((3,4-difluorobenzyl)oxy)-3,4,11,11a-tetrahydro-1H-pyrazino[1′,2′:3,4]imidazo[1,2-c]pyrimidin-9(2H)-one] are not above 10 µM and not above 0.1 µM. The corresponding values for `O=c1nc(OCc2cc(F)c(Oc3cncc(C(F)(F)F)c3)c(F)c2)cc2n1CC1CSCCN21` (stereo not drawn) [Example E371, 7-((3,5-Difluoro-4-((5-(trifluoromethyl)pyridin-3-yl)oxy)benzyl)oxy)-3,4,11,11a-tetrahydropyrimido[6′,1′:2,3]imidazo[5,1-c][1,4]thiazin-9(1H)-one] are not above 0.001 µM and not above 0.1 µM. For `CCS(=O)(=O)N1CCN2c3cc(OCc4ccc(F)c(C#N)c4)nc(=O)n3CC2C1` (stereo not drawn) [Example E283, 5-(((2-(Ethylsulfonyl)-9-oxo-2,3,4,9,11,11a-hexahydro-1H-pyrazino[1,2′:3,4]imidazo[1,2-c]pyrimidin-7-yl)oxy)methyl)-2-fluorobenzonitrile], the figures for the IC50 (in test [1]; on Lp-PLA2 in human plasma) were not above 10 µM and not above 0.1 µM, respectively. With `N#Cc1cc(COc2cc3n(c(=O)n2)CC2CN(C(=O)C4CCC4)CCN32)ccc1F` (stereo not drawn) [Example E302, 5-(((2-(Cyclobutanecarbonyl)-9-oxo-2,3,4,9,11,11a-hexahydro-1H-pyrazino[1′,2′:3,4]imidazo[1,2-c]pyrimidin-7-yl)oxy)methyl)-2-fluorobenzonitrile], the values for the IC50 (in test [1]; on Lp-PLA2 in human plasma) were not above 10 µM and not above 0.1 µM, respectively.

Regarding `CC(C)(C)C(=O)N1CCN2c3cc(OCc4ccc(F)c(C#N)c4)nc(=O)n3CC2C1` (stereo not drawn) [Example E294, 2-Fluoro-5-(((9-oxo-2-pivaloyl-2,3,4,9,11,11a-hexahydro-1H-pyrazino[1′,2′:3,4]imidazo[1,2-c]pyrimidin-7-yl)oxy)methyl)benzonitrile 2,2,2-trifluoroacetate], the IC50 was not above 10 µM in test [1] and not above 0.1 µM on Lp-PLA2 in human plasma. The corresponding values for `N[C@@H]1C[C@@H]2Cn3c(cc(OCc4cc(F)c(Oc5ccnc(C(F)(F)F)c5)c(F)c4)nc3=O)N2C1` [Example E387, (7R,8aR)-7-Amino-3-((3,5-difluoro-4-((2-(trifluoromethyl)pyridin-4-yl)oxy)benzyl)oxy)-7,8,8a,9-tetrahydropyrrolo[1′,2′:3,4]imidazo[1,2-c]pyrimidin-1(6H)-one] are not above 10 µM and not above 0.1 µM.

For the molecule `CC(=O)N1CCN2c3cc(OCc4cc(F)c(Oc5ccc(C)nc5)c(F)c4)nc(=O)n3CC2C1` (stereo not drawn) [Example E299, 2-Acetyl-7-((3,5-difluoro-4-((6-methylpyridin-3-yl)oxy)benzyl)oxy)-3,4,11,11a-tetrahydro-1H-pyrazino[1′,2′:3,4]imidazo[1,2-c]pyrimidin-9(2H)-one], the IC50 in test [1] is not above 10 µM; at Lp-PLA2 in human plasma, not above 0.1 µM. `Cc1ccc(Oc2c(F)cc(COc3cc4n(c(=O)n3)CC3(COC3)N4C)cc2F)cn1` [Example 400, 7-((3,5-Difluoro-4-((6-methylpyridin-3-yl)oxy)benzyl)oxy)-1-methyl-1H-spiro[imidazo[1,2-c]pyrimidine-2,3′-oxetan]-5(3H)-one]: the IC50 was not above 10 µM in test [1] and not above 0.1 µM on Lp-PLA2 in human plasma. In the same order, the values of `N#Cc1cc(COc2cc3n(c(=O)n2)CC2CN(CC(F)(F)F)CCN32)ccc1F` (stereo not drawn) [Example E322, 2-Fluoro-5-(((9-oxo-2-(2,2,2-trifluoroethyl)-2,3,4,9,11,11a-hexahydro-1H-pyrazino[1′,2′:3,4]imidazo[1,2-c]pyrimidin-7-yl)oxy)methyl)benzonitrile] are not above 10 µM and not above 0.1 µM. The corresponding values for `O=c1nc(OCc2cc(F)c(Oc3cncc(C(F)(F)F)c3)c(F)c2)cc2n1CC1(CCOCC1)N2` [Example 401, 7-((3,5-Difluoro-4-((5-(trifluoromethyl)pyridin-3-yl)oxy)benzyl)oxy)-2′,3′,5′,6′-tetrahydro-1H-spiro[imidazo[1,2-c]pyrimidine-2,4′-pyran]-5(3H)-one] are 0.000631 µM and not above 0.1 µM. The corresponding values for `N#Cc1cc(COc2cc3n(c(=O)n2)CC2COCCN32)ccc1F` (stereo not drawn) [Example E329, 2-Fluoro-5-(((9-oxo-1,3,4,9,11,11a-hexahydropyrimido[6′,1′:2,3]imidazo[5,1-c][1,4]oxazin-7-yl)oxy)methyl)benzonitrile] are not above 10 µM and not above 0.1 µM. With `N#Cc1cc(COc2cc3n(c(=O)n2)C[C@@H]2C[C@H](O)CN32)ccc1F` [Example E382, 2-Fluoro-5-((((7S,8aS)-7-hydroxy-1-oxo-1,6,7,8,8a,9-hexahydropyrrolo[1′,2′:3,4]imidazo[1,2-c]pyrimidin-3-yl)oxy)methyl)benzonitrile], the IC50 in test [1] was not above 10 µM; on Lp-PLA2 in human plasma it was not above 0.1 µM.

Turning to `CCOC(=O)C(C)N1CCN2c3cc(OCc4ccc(F)c(F)c4)nc(=O)n3CC2C1` (single isomer, unassigned) [Example E327, Ethyl 2-(7-((3,4-difluorobenzyl)oxy)-9-oxo-3,4,11,11a-tetrahydro-1H-pyrazino[1′,2′:3,4]imidazo[1,2-c]pyrimidin-2(9H)-yl)propanoate], the IC50 on Lp-PLA2 in human plasma was not above 0.1 µM.

The record behind these values is US11999746B2, “Compounds” (GlaxoSmithKline Intellectual Property Development Limited, priority 2014, dated 2024).
